Test results from US12377104B1, “Methods for treating a fatty liver disease” (Madrigal Pharmaceuticals, Inc., priority 2024, dated 2025).

Tested on: adults with biopsy-confirmed NASH
Assay: MAESTRO-NASH: adverse events, serious adverse events, malignancies
Details: for Adverse event: Abdominal distension / Adverse event: Abdominal pain / Adverse event: Abdominal pain upper / Adverse event: Constipation / Adverse event: Cough / Adverse event: Decreased appetite / Adverse event: Dizziness / Adverse event: Gastrooesophageal reflux disease / Adverse event: Headache / Adverse event: Hypertension / Adverse event: Muscle spasms / Adverse event: Nasopharyngitis / Adverse event: Pain in extremity / Adverse event: Procedural pain / Adverse event: Rash / Adverse event: Sinusitis / Adverse event: Type 2 diabetes / Adverse event: Upper respiratory tract infection / Adverse event: Vomiting: safety population
From the text: Safety end points included adverse events, biochemical assessments, and clinical assessments. Selected serious adverse events (including deaths, cardiovascular events, and potential drug-induced liver injury) were adjudicated by independent, external event-adjudication committees whose members were unaware of the trial-group assignments.

Structure (SMILES): CC(C)c1cc(Oc2c(Cl)cc(-n3nc(C#N)c(=O)[nH]c3=O)cc2Cl)n[nH]c1=O [Resmetirom, 2-(3,5-dichloro-4-((5-isopropyl-6-oxo-1,6-dihydropyridazin-3-yl)oxy)phenyl)-3,5-dioxo-2,3,4,5-tetrahydro-1,2,4-triazine-6-carbonitrile]
- Adverse event leading to trial discontinuation before wk 52, number of patients (80 mg): 6
- Adverse event leading to trial discontinuation during entire treatment period, number of patients (80 mg): 9
- Adverse event leading to trial discontinuation during entire treatment period, percent of patients (80 mg): (2.8) percent
- Arthralgia, number of patients (80 mg): 48
- Arthralgia, percent of patients (80 mg): (14.9) percent
- Back pain, number of patients (80 mg): 35
- Back pain, percent of patients (80 mg): (10.9) percent
- Cancer reported, patients (80 mg): 1.2%
- Covid-19, number of patients (80 mg): 69
- Covid-19, percent of patients (80 mg): (21.4) percent
- Diarrhea, number of patients (80 mg): 87
- Diarrhea, percent of patients (80 mg): (27.0) percent
- Fatal adverse event, number of patients (80 mg): 1
- Fatal adverse event, percent of patients (80 mg): (0.3) percent
- Fatigue, number of patients (80 mg): 33
- Fatigue, percent of patients (80 mg): (10.2) percent
- Grade 1: mild, number of patients (80 mg): 73
- Grade 1: mild, percent of patients (80 mg): (22.7) percent
- Grade 2: moderate, number of patients (80 mg): 180
- Grade 2: moderate, percent of patients (80 mg): (55.9) percent
- Grade 3 or higher: severe, number of patients (80 mg): 43
- Grade 3 or higher: severe, percent of patients (80 mg): (13.4) percent
- Major adverse cardiovascular event, number of patients (80 mg): 1
- Major adverse cardiovascular event, percent of patients (80 mg): (0.3) percent
- Nausea, number of patients (80 mg): 71
- Nausea, percent of patients (80 mg): (22.0) percent
- Other cardiovascular event, number of patients (80 mg): 0
- Pruritus, number of patients (80 mg): 26
- Pruritus, percent of patients (80 mg): (8.1) percent
- Urinary tract infection, number of patients (80 mg): 33
- Urinary tract infection, percent of patients (80 mg): (10.2) percent
- ≥1 Adverse event attributed to resmetirom, number of patients (80 mg): 124
- ≥1 Adverse event attributed to resmetirom, percent of patients (80 mg): (38.5) percent
- ≥1 Adverse event, number of patients (80 mg): 296
- ≥1 Adverse event, percent of patients (80 mg): (91.9) percent
- ≥1 Serious adverse event attributed to resmetirom, number of patients (80 mg): 2
- ≥1 Serious adverse event attributed to resmetirom, percent of patients (80 mg): (0.6) percent
- ≥1 Serious adverse event, number of patients (80 mg): 35
- Malignancy: Basal cell carcinoma (80 mg (N = 322)): 2 (0.6) n (%)
- Malignancy: Breast carcinoma (80 mg (N = 322)): 1 (0.3) n (%)
- Malignancy: Malignant melanoma (80 mg (N = 322)): 0 n (%)
- Malignancy: Skin cancer (squamous cell) (80 mg (N = 322)): 1 (0.3) n (%)
- Patients with any malignancy (80 mg (N = 322)): 4 (1.2) n (%)
- Patients with at least one TE-SAEs (80 mg (N = 322)): 35 (10.9) n (%)
- SAE: Acute Gallstone-related disorders (80 mg (N = 322)): 3 (0.9) n (%)
- SAE: COVID-19 (80 mg (N = 322)): 1 (0.3) n (%)
- SAE: COVID-19 pneumonia (80 mg (N = 322)): 2 (0.6) n (%)
- SAE: Cardiac disorders (80 mg (N = 322)): 3 (0.9) n (%)
- SAE: Gastrointestinal disorders (80 mg (N = 322)): 3 (0.9) n (%)
- SAE: General disorders and administration site conditions (80 mg (N = 322)): 2 (0.6) n (%)
- SAE: Infections and infestations (80 mg (N = 322)): 12 (3.7) n (%)
- SAE: Injury, poisoning and procedural complications (80 mg (N = 322)): 3 (0.9) n (%)
- SAE: Musculoskeletal and connective tissue disorders (80 mg (N = 322)): 7 (2.2) n (%)
- SAE: Nervous system disorders (80 mg (N = 322)): 3 (0.9) n (%)
- SAE: Post procedural haemorrhage (80 mg (N = 322)): 1 (0.3) n (%)
- SAE: Respiratory, thoracic and mediastinal disorders (80 mg (N = 322)): 3 (0.9) n (%)
- Adverse event: Abdominal distension (80 mg (n = 322)): 14 (4.3) no. (%)
- Adverse event: Abdominal pain (80 mg (n = 322)): 23 (7.1) no. (%)
- Adverse event: Abdominal pain upper (80 mg (n = 322)): 23 (7.1) no. (%)
- Adverse event: Constipation (80 mg (n = 322)): 21 (6.5) no. (%)
- Adverse event: Cough (80 mg (n = 322)): 14 (4.3) no. (%)
- Adverse event: Decreased appetite (80 mg (n = 322)): 5 (1.6) no. (%)
- Adverse event: Dizziness (80 mg (n = 322)): 20 (6.2) no. (%)
- Adverse event: Gastrooesophageal reflux disease (80 mg (n = 322)): 16 (5.0) no. (%)
- Adverse event: Headache (80 mg (n = 322)): 30 (9.3) no. (%)
- Adverse event: Hypertension (80 mg (n = 322)): 16 (5.0) no. (%)
- Adverse event: Muscle spasms (80 mg (n = 322)): 14 (4.3) no. (%)
- Adverse event: Nasopharyngitis (80 mg (n = 322)): 14 (4.3) no. (%)
- Adverse event: Pain in extremity (80 mg (n = 322)): 12 (3.7) no. (%)
- Adverse event: Procedural pain (80 mg (n = 322)): 16 (5.0) no. (%)
- Adverse event: Rash (80 mg (n = 322)): 12 (3.7) no. (%)
- Adverse event: Sinusitis (80 mg (n = 322)): 10 (3.1) no. (%)
- Adverse event: Type 2 diabetes (80 mg (n = 322)): 24 (7.5) no. (%)
- Adverse event: Upper respiratory tract infection (80 mg (n = 322)): 23 (7.1) no. (%)
- Adverse event: Vomiting (80 mg (n = 322)): 28 (8.7) no. (%)
- Adverse event leading to trial discontinuation before wk 52, number of patients (100 mg): 22
- Adverse event leading to trial discontinuation during entire treatment period, number of patients (100 mg): 25
- Adverse event leading to trial discontinuation during entire treatment period, percent of patients (100 mg): (7.7) percent
- Arthralgia, number of patients (100 mg): 35
- Arthralgia, percent of patients (100 mg): (10.8) percent
- Back pain, number of patients (100 mg): 27
- Back pain, percent of patients (100 mg): (8.4) percent
- Cancer reported, patients (100 mg): 3.4%
- Covid-19, number of patients (100 mg): 54
- Covid-19, percent of patients (100 mg): (16.7) percent
- Diarrhea, number of patients (100 mg): 108
- Diarrhea, percent of patients (100 mg): (33.4) percent
- Fatal adverse event, number of patients (100 mg): 2
- Fatal adverse event, percent of patients (100 mg): (0.6) percent
- Fatigue, number of patients (100 mg): 26
- Fatigue, percent of patients (100 mg): (8.0) percent
- Grade 1: mild, number of patients (100 mg): 66
- Grade 1: mild, percent of patients (100 mg): (20.4) percent
- Grade 2: moderate, number of patients (100 mg): 183
- Grade 2: moderate, percent of patients (100 mg): (56.7) percent
- Grade 3 or higher: severe, number of patients (100 mg): 47
- Grade 3 or higher: severe, percent of patients (100 mg): (14.6) percent
- Major adverse cardiovascular event, number of patients (100 mg): 1
- Major adverse cardiovascular event, percent of patients (100 mg): (0.3) percent
- Nausea, number of patients (100 mg): 61
- Nausea, percent of patients (100 mg): (18.9) percent
- Other cardiovascular event, number of patients (100 mg): 1
- Other cardiovascular event, percent of patients (100 mg): (0.3) percent
- Pruritus, number of patients (100 mg): 37
- Pruritus, percent of patients (100 mg): (11.5) percent
- Urinary tract infection, number of patients (100 mg): 27
- Urinary tract infection, percent of patients (100 mg): (8.4) percent
- ≥1 Adverse event attributed to resmetirom, number of patients (100 mg): 134
- ≥1 Adverse event attributed to resmetirom, percent of patients (100 mg): (41.5) percent
- ≥1 Adverse event, number of patients (100 mg): 296
- ≥1 Adverse event, percent of patients (100 mg): (91.6) percent
- ≥1 Serious adverse event attributed to resmetirom, number of patients (100 mg): 0
- ≥1 Serious adverse event, number of patients (100 mg): 41
- Malignancy: Basal cell carcinoma (100 mg (N = 323)): 3 (0.9) n (%)
- Malignancy: Breast carcinoma (100 mg (N = 323)): 2 (0.6) n (%)
- Malignancy: Malignant melanoma (100 mg (N = 323)): 1 (0.3) n (%)
- Malignancy: Skin cancer (squamous cell) (100 mg (N = 323)): 1 (0.3) n (%)
- Patients with any malignancy (100 mg (N = 323)): 11 (3.4) n (%)
- Patients with at least one TE-SAEs (100 mg (N = 323)): 41 (12.7) n (%)
- SAE: Acute Gallstone-related disorders (100 mg (N = 323)): 3 (0.9) n (%)
- SAE: COVID-19 (100 mg (N = 323)): 1 (0.3) n (%)
- SAE: COVID-19 pneumonia (100 mg (N = 323)): 0 n (%)
- SAE: Cardiac disorders (100 mg (N = 323)): 3 (0.9) n (%)
- SAE: Gastrointestinal disorders (100 mg (N = 323)): 7 (2.2) n (%)
- SAE: General disorders and administration site conditions (100 mg (N = 323)): 5 (1.5) n (%)
- SAE: Infections and infestations (100 mg (N = 323)): 5 (1.5) n (%)
- SAE: Injury, poisoning and procedural complications (100 mg (N = 323)): 8 (2.5) n (%)
- SAE: Musculoskeletal and connective tissue disorders (100 mg (N = 323)): 1 (0.3) n (%)
- SAE: Nervous system disorders (100 mg (N = 323)): 2 (0.6) n (%)
- SAE: Post procedural haemorrhage (100 mg (N = 323)): 1 (0.3) n (%)
- SAE: Respiratory, thoracic and mediastinal disorders (100 mg (N = 323)): 4 (1.2) n (%)
- Adverse event: Abdominal distension (100 mg (n = 323)): 13 (4.0) no. (%)
- Adverse event: Abdominal pain (100 mg (n = 323)): 29 (9.0) no. (%)
- Adverse event: Abdominal pain upper (100 mg (n = 323)): 27 (8.4) no. (%)
- Adverse event: Constipation (100 mg (n = 323)): 28 (8.7) no. (%)
- Adverse event: Cough (100 mg (n = 323)): 18 (5.6) no. (%)
- Adverse event: Decreased appetite (100 mg (n = 323)): 16 (5.0) no. (%)
- Adverse event: Dizziness (100 mg (n = 323)): 19 (5.9) no. (%)
- Adverse event: Gastrooesophageal reflux disease (100 mg (n = 323)): 7 (2.2) no. (%)
- Adverse event: Headache (100 mg (n = 323)): 25 (7.7) no. (%)
- Adverse event: Hypertension (100 mg (n = 323)): 13 (4.0) no. (%)
- Adverse event: Muscle spasms (100 mg (n = 323)): 22 (6.8) no. (%)
- Adverse event: Nasopharyngitis (100 mg (n = 323)): 20 (6.2) no. (%)
- Adverse event: Pain in extremity (100 mg (n = 323)): 12 (3.7) no. (%)
- Adverse event: Procedural pain (100 mg (n = 323)): 9 (2.8) no. (%)
- Adverse event: Rash (100 mg (n = 323)): 21 (6.5) no. (%)
- Adverse event: Sinusitis (100 mg (n = 323)): 13 (4.0) no. (%)
- Adverse event: Type 2 diabetes (100 mg (n = 323)): 26 (8.0) no. (%)
- Adverse event: Upper respiratory tract infection (100 mg (n = 323)): 8 (2.5) no. (%)
- Adverse event: Vomiting (100 mg (n = 323)): 35 (10.8) no. (%)
- drug-induced liver injury (in vivo): no incidence of drug-induced liver injury
- severe diarrhea (in vivo): no episodes of severe diarrhea
- median duration of diarrhea (independent of dose): 15 to 20 days
